Laboratory results published in patent US8278355B2, “Isovaline for treatment of pain” (Therexcell Pharma Inc., priority 2006, dated 2012).

Legend:
[1] = system: pain of formalin injection in the mouse foot; experiment: Formalin hindpaw licking test, intravenous pre-treatment; type: in vivo, mice; settings: for analgesia in peripherally induced pain, intravenous administration: overall summary
Protocol: Groups of mice (n=10) were injected intravenously with a dose of 500 mg/kg of compound (Ia) at 10 minutes prior to subcutaneous formalin injection into the right hindpaw. After the injection of formalin (5% in 20 microliters), the animals were monitored for 40 min for licking activity.

[2] = Rotarod test (ataxia, central toxicity) after intravenous administration; settings: for rotarod performance versus control saline and pre- versus post-injection: 500 mg/kg, 3 ml/kg, tail vein, 10 mice per group, ANOVA p<0.05
Protocol: Changes in central nervous system behavior viewed as ataxia were measured using the rotarod procedure in mice, described by Vaupel, McConn, and Cone (Journal of Pharmacology & Experimental Therapeutics, 230: 20-27, 1984). A 27-mm diameter rod was rotated at 5 rpm. At least 1 day before testing, mice were trained in three sessions on the rod for two consecutive 5 minute trials, separated by a 5 minute rest period. During the tests, each trial on the rotarod was limited to a 120 seconds maximum. For all experiments two control trials obtained 6 minutes apart preceded the injection (500 mg/kg, 3 ml/kg) of compound (Ib) or (Ic) into the tail vein. Each mouse was then given 2 trials, with 6 minutes between trials after the injection.
The data were analyzed as means±SEM of 10 mice in each group, and examined by analysis of variance (ANOVA) for multiple comparisons with the single control group. Level of significance was set to 5% (p<0.05).

[3] = Overall behavioral observation of the animals studied; type: in vivo; settings: all animals studied
[4] = system: pain of formalin injection in the mouse foot; experiment: Formalin hindpaw licking test, lumbar intrathecal pre-treatment; type: in vivo, mice; settings: for cumulative paw licking / licking, early phase (reflecting acute pain) / licking, late phase (reflecting chronic pain): 250 micromolar in 5 microliters, lumbar intrathecal; for cumulative paw licking: 5 minutes before formalin, 40 min, p-value<0.001; for licking, early phase (reflecting acute pain) / licking, late phase (reflecting chronic pain): FIG. 4; for activity against peripherally induced pain, administered to the lumbar cord: overall summary
Protocol: The effects of compound (Ib) and (Ic) were determined in the acute and chronic peripheral pain model according to Kolesnikov, Cristea, Oksman, Torosjan, and Wilson (Brain Research 17: 217-223, 2004). Use of this model involves pre-treatment with the test compound and injection of formalin (5% in 20 microliters) into the right hindpaw of mice. Groups of mice (n=10) were injected intrathecally into the lumbar segment with compound (Ib) or (Ic) at 250 micromolar in 5 microliters, at 5 minutes prior to subcutaneous formalin injection into the right hindpaw. The mice were monitored for 40 min for licking activity and assessed according to the method of Abbott, Franklin, and Westbrook (Pain 60: 91-102, 1995).

[5] = system: strychnine-induced allodynia; type: in vivo, mouse; settings: for effect on hyperalgesia or allodynia (vocalization, flinching, scratching): 4 millimolar with strychnine 200 micromolar in 5 microliters aCSF, p<0.01; for effect on hyperalgesia or allodynia (vocalization, flinching, scratching) / behavior of mice treated with compound and strychnine / side effects in treated animals: cisterna magna; for behavior of mice treated with compound and strychnine: 4 millimolar with strychnine 200 micromolar, compared with aCSF control; for side effects in treated animals: 4 millimolar; for analgesia against trigeminal hyperalgesia or allodynia compared with carbamazepine / analgesia against trigeminal hyperalgesia or allodynia compared with morphine: overall summary
Protocol: Strychnine when administered alone to the intact rodent mimics the allodynia of chronic pain resulting from damage to inhibitory amino acid functions in the central nervous system.
In the present example, injections into the cisterna magna of the mouse were performed as described by Reijneveld, Taphoorn, and Voerst (Journal of Neurooncology 42: 137-142, 1999). Each series of experiments consisted of 6 to 9 pairs of mice. […] In each session, two mice were injected with the strychnine solution within one minute of each other. […] A continuous video recording was made of all responses.

[6] = system: strychnine-induced allodynia; settings: lumbar intrathecal
Protocol: Injections into the 6th lumbar intrathecal space were performed according to the method of Hylden and Wilcox (Brain Research 217: 212-215, 1981). The total volume used for injection in all experiments was 5 microliters of artificial cerebrospinal fluid (aCSF). In mice anesthetized with isoflurane, strychnine at 200 micromolar in 5 microliters of aCSF was injected either alone or in combination with compound (Ia) at concentrations of 4 to 8 millimolar in a total volume of 5 microliters of aCSF. In each experiment 2 mice were injected with 5 microliters of solution within one minute of each other. One of the mice received strychnine 200 micromolar in aCSF (control) and the other received the same volume with strychnine 200 micromolar in combination with the test compound (Ia). The mice were placed in a container designed such that they were unaware of the other, but could be simultaneously observed. The presence of flinching, scratching or vocalization in response to touching with a fine hair was noted every two minutes. Responses limited to lumbar segments 5 and 6, as well as originating from more caudal nerve distribution were considered as positive. A continuous video recording was made of all responses. Each experiment consisted of 6 to 9 pairs of mice. The blinded observer decided which animal had the greatest response to stimuli. A Wilcoxon signed rank test was used to determine the statistical significance of the results.

| Compound | behavioral toxicity [3] | cumulative paw licking [4] | licking, early phase (reflecting acute pain) [4] | licking, late phase (reflecting chronic pain) [4] | activity against peripherally induced pain, administered to the lumbar cord [4] | analgesia in peripherally induced pain, intravenous administration [1] | effect on hyperalgesia or allodynia (vocalization, flinching, scratching) ([5]; FIG. 1) | behavior of mice treated with compound and strychnine [5] | side effects in treated animals [5] | analgesia against trigeminal hyperalgesia or allodynia compared with carbamazepine [5] | analgesia against trigeminal hyperalgesia or allodynia compared with morphine [5] | rotarod performance versus control saline and pre- versus post-injection [2] | further results |
| --- | --- | --- | --- | --- | --- | --- | --- | --- | --- | --- | --- | --- | --- |
| CCC(C)(N)C(=O)O (centres unmarked) [Formula (I), Isovaline (2-Amino-2-methylbutanoic acid)] |  |  |  |  |  |  |  |  |  |  |  |  | blood-brain-barrier crossing ([1]; inferred from analgesia after intravenous administration): crosses the blood-brain-barrier; central nervous system toxicity, such as ataxia or other disturbances in conscious behavior ([2]; mouse, in vivo): no evidence |
| CCC(C)(N)C(=O)O (single isomer, unassigned) [(Ib), Isovaline (2-Amino-2-methylbutanoic acid)] | no observed behavioral toxicity | significantly reduced | significantly reduced | significantly reduced | active against acute and chronic pain induced peripherally | effective in producing analgesia | The same effects were obtained | identical to the mice which received the aCSF control injection without strychnine | no side effects such as sedation, movement disorders, or abnormal behavior | surpassed the analgesia produced by carbamazepine | to a much greater degree than the tested reference opioid, morphine | did not show significant differences |  |
| CN1CC[C@]23c4c5ccc(O)c4O[C@H]2[C@@H](O)C=C[C@H]3[C@H]1C5 [morphine, reference compound] |  |  |  |  |  |  |  |  |  |  |  |  | responses to intracisternal injections (analgesia) ([5]; 1 mg/kg body weight, intracisternal, FIG. 1): poor or absent |
| CCC(C)(N)C(=O)O (racemic) [(Ia), Isovaline (2-Amino-2-methylbutanoic acid)] | no observed behavioral toxicity |  |  |  | active against acute and chronic pain induced peripherally |  | a great reduction and a total blockade of hyperalgesia or allodynia | identical to the mice which received the aCSF control injection without strychnine | no side effects such as sedation, movement disorders, or abnormal behavior | surpassed the analgesia produced by carbamazepine | to a much greater degree than the tested reference opioid, morphine |  | licking, late phase (reflecting chronic pain) ([1]; 500 mg/kg intravenously, 10 minutes before formalin, 10 to 40 minutes, FIG. 5, p<0.001): significantly reduced; pairs of mice in which blinded observer identified presence of compound ([6]; 8 millimolar plus strychnine 200 micromolar, 5 microliter, FIG. 3, p<0.01): 6 out of 6; effect of sole administration (without strychnine) ([6]; 25 microliters at 10 millimolar, no strychnine): did not produce a significant result; duration of effect [6]: at least 60 minutes; sedation, movement disorders, abnormal behaviour in treated animals ([6]; 8 millimolar): no sedation, movement disorders, or abnormal behaviour; behavior of treated mice without concomitant strychnine injection ([6]; no strychnine, compared with aCSF control): identical to those mice that received aCSF control injection |
| NC(=O)N1c2ccccc2C2OC2c2ccccc21 (centres unmarked) [carbamazepine epoxide, reference compound] |  |  |  |  |  |  |  |  |  |  |  |  | analgesic effect ([5]; 30 mg/kg body weight, FIG. 1): an analgesic effect |
| CCC(C)(N)C(=O)O (single isomer, unassigned) [(Ic), Isovaline (2-Amino-2-methylbutanoic acid)] | no observed behavioral toxicity | significantly reduced | significantly reduced | significantly reduced | active against acute and chronic pain induced peripherally | effective in producing analgesia | The same effects were obtained | identical to the mice which received the aCSF control injection without strychnine | no side effects such as sedation, movement disorders, or abnormal behavior | surpassed the analgesia produced by carbamazepine | to a much greater degree than the tested reference opioid, morphine | did not show significant differences |  |
